# According to patent publication US20170056524A1, “COMPOSITIONS AND METHODS FOR TARGETED EPIGENETIC MODIFICATION” (THE TRUSTEES OF THE UNIVERSITY OF PENNSYLVANIA, priority 2014, published 2017):
# Entries after “also recorded” stand apart in the source; their conditions may differ.
# Legend:
# [1] = test system: p16 TALE-DNMT (24-repeat TALE fused to DNMT3a-3L) (Xanthomonas TALE / DNMT3a-DNMT3L, engineered?); assay: cell_activity; details: HeLa transfection, 48 h, bisulfite sequencing, vs E752A mutant; up to 66.5% at individual CpGs
# [2] = test system: p16 jTALE-DNMT (18-repeat TALE fused to DNMT3a-3L) (Xanthomonas TALE / DNMT3a-DNMT3L, engineered?); assay: cell_activity; details: primary human fibroblasts, lentivirus, 4 days, vs mutant; p16 mRNA decreased about 50%; also active in HeLa and hCASMC
# [3] = test system: human islets; assay: Immunofluorescent confocal analysis of Adox-treated human islets; assay type: cell-based
# Procedure: (§1) Human islets and islets from GlucagonCre; Rosa26EYFP bigenic mice (Herrera et al., 2000; Srinivas et al., 2001) were cultured, treated with 50μM adenosine dialdehyde (Adox, Sigma A7154) for 72 h, FACS sorted as described previously (11), or prepared for immunostaining.
# Immunofluorescent confocal analysis was performed as described previously (Gao et al., Genes Dev. 2010, Jun. 15, 24(12): 1295-305). Sections were blocked with CAS-Block (Invitrogen, 00-8120) and stained using guinea pig anti-insulin 1:500 (Abcam, ab7842), rabbit anti-glucagon 1:250 (Santa Cruz, sc13091), guinea-pig anti-Pdx1 1:1000 (gift from Dr. C. Wright), mouse anti-E-Cadherin 1:500 (BD Transduction Laboratories, 610181), goat anti-GFP (Abcam, ab6673), guinea pig Cy2, guinea pig Cy5, rabbit Cy3, mouse Cy2, mouse Cy5, goat Cy3 (1:500, Jackson-Immunoresearch) antibodies. For quantification of double PDX1+/GCG+ cells, Pdx1-, Glucagon-, E-Cadherin and DAPI staining were performed on untreated (control) and Adox-treated islets. All glucagon-positive cells and all double PDX1+/GCG+ cells were counted manually (8 slides) in each condition and the percentage of PDX1+/GCG+ double-positive cells of all glucagon-positive cells was calculated.
# [4] = test system: human α-cells; assay: RNA-Seq of FACS-sorted α-cells from Adox-treated human islets; assay type: cell-based; details: Adox-treated α-cells (Adox-α/β vs α/β ratio)
# Procedure: (§2) After total RNA extraction (see above), RNA-Seq libraries were prepared from sorted alpha, beta, and exocrine cells. The detailed protocol can be found on http://ngsc.med.upenn.edu (Lab protocol, Library preparation for RNA-Seq from total RNA). Libraries were single-end sequenced to 100 bp on an Illumina hiSeq2000. Reads from ribosomal RNA and genomic repeats were identified by aligning the 5′ 50 bp of each read to ribosomal sequences and the human repeats in RepBase (version 14.10) using Bowtie (Langmead B., Curr. Protoc. Bioinformatics. 201, December Chapter 11: Unit 117) and allowing for up to three mismatches. The remaining reads were processed with RUM (Grant et al., Bioinformatics 2011. Sep. 15, 27(18): 2518-28) and aligned to the set of known transcripts included in RefSeq, UCSC known genes, and ENSEMBL transcripts, and the human genome (hg18, NCBI build 36.1). Transcript-, exon-, and intron-level quantification was done using only the uniquely aligning reads. This process was repeated separately for each cell type and donor.
# (§3) To analyze global gene expression profiles from each sample, RNA-seq read counts aligning to exons of mRNA transcripts in RefSeq were extracted, and these values were normalized to total uniquely aligning reads and transcript length (RPKM). Data for individual genes was summarized by selecting a “representative transcript” with the highest RPKM value for each gene symbol (total=18,822 genes). Gene-level data was then quantile-normalized across all samples to remove bias from the variable expression levels of highly expressed genes, e.g., insulin, glucagon, and highly expressed ncRNAs, which dampen the relative signal of all other genes. Finally, quantile-normalized gene expression values were averaged together for samples of the same cell type to produce a single average gene profile for each cell type. These values were used for all subsequent analyses, including expression comparisons for individual genes of interest.
# as §1
# (§4) To investigate the transcriptional changes in Adox-treated human islets and confirm increased PDX1 expression, FACS analysis after Adox-treatment was performed using the same antibody panel as described above, followed by RNA-Seq analysis (n=2 treated α, n=2 treated β, technical replicates) and focused on cell-type-specific hormones and transcription factors. To assess whether Adox-treated β-cells become more α-cell like or vice versa, the ratio of expression levels in untreated β-cells and untreated α-cells (β/α) were first compared to the ratio in Adox-treated β-cells and untreated α-cells (Adox-β/α) (FIG. 6E). A decrease in NKX6-1 and MAFA levels, an increase in PDX1 levels and no change in insulin expression were found and no change in the expression levels of the α-cell specific genes glucagon or ARX were observed, giving no indication for a gain of α-cell identity. Second, the ratio of expression values in untreated α-cells and untreated β-cells (α/β) were compared to the ratio in Adox-treated α-cells and untreated β-cells (Adox-α/β) to elucidate whether Adox-treated α-cells become more ‘β-cell like’ (FIG. 6F).
# [5] = test system: islets from GlucagonCre; Rosa26EYFP mice; assay: Lineage tracing: immunostaining of Adox-treated islets from GlucagonCre; Rosa26EYFP mice; assay type: cell-based; details: mouse islets treated with Adox in vitro; not observed in control islets
# Procedure: as §1
# Immunofluorescent confocal analysis was performed as described previously (Gao et al., Genes Dev. 2010, Jun. 15, 24(12): 1295-305). […] For quantification of double PDX1+/GCG+ cells, Pdx1-, Glucagon-, E-Cadherin and DAPI staining were performed on untreated (control) and Adox-treated islets. All glucagon-positive cells and all double PDX1+/GCG+ cells were counted manually (8 slides) in each condition and the percentage of PDX1+/GCG+ double-positive cells of all glucagon-positive cells was calculated.
# A priori, the co-localization of glucagon with insulin could be due to α- to β-cell fate or β- to α-cell fate conversion. […] For this purpose, islets from GlucagonCre; Rosa26EYFP mice were treated, in which α-cells are permanently marked by yellow fluorescence protein (YFP) expression (27, 28) with Adox in vitro. […]
# [6] = test system: human β-cells; assay: RNA-Seq of FACS-sorted β-cells from Adox-treated human islets; assay type: cell-based; details: Adox-treated β-cells (Adox-β/α vs β/α ratio)
# Procedure: as §2, §3, §1, §4
# [7] = test system: H3K27me3; assay: H3K27me3 ChIP-Seq of whole human islets cultured in the absence or presence of Adox; assay type: cell-based
# Procedure: Chromatin immunoprecipitation and preparation of ChIP-Seq libraries was performed on individual cell sorts for each cell type and donor (H3K4me3: Abcam 8580, H3K27me3: Upstate 07-449).
# Libraries for H3K4me3, H3K27me3, and input were sequenced on an Illumina GA-IIx to 36 bp. Reads were aligned to hg18 using ELAND. Up to two mismatches were allowed and only reads with a best alignment to a single location were used for further analysis. Enrichment of H3K4me3 was performed on individual donors and cell types using GLITR (FDR=5%) (32) and a pool of human input from various tissues. GLITR was also run on islet cell input samples and any peaks identified in the inputs were filtered from the H3K4me3 enriched regions. Enriched regions in the H3K27me3 data were identified using the program STAR (33) with a sliding window of 5,000 bp, step size of 1,000 bp, and a FDR=0.5%. To ensure fair comparison, H3K4me3 and H3K27me3 profiles from CD4-positive T-cells (23) were determined using the same algorithms and settings.
# as §1
# The high incidence of bivalent marks in α-cells, the interesting bivalent pattern of β-cell and α-cell-specific transcription factors in α-cells, and the large overlap with bivalently-marked transcriptional regulators in hESC raised the likelihood that epigenomic manipulations could be exploited to reprogram human α-cells towards the β-cell phenotype. Several drugs, such as adenosine dialdehyde (Adox) and 3-Deazaneplanocin A (DZNep) interfere with histone methylation (24). The general histone methyltransferase inhibitor Adox, which amongst others decreases H3K27me3 levels (24), was employed to test whether modulation of the histone methylation status of human pancreatic islets could promote reprogramming. […]
# [8] = whole human islets, 50μM Adox 72 h vs untreated
compound,measurement,setting,value
"CCTCCTTCCTTGCCAACGCTGGCT (double strand) [CDKN2A (p16) promoter TALE target, 24 bp]",activity (% average increase in CpG methylation),[1],17
"TCCTTGCCAACGCTGGCT (double strand) [CDKN2A (p16) promoter jTALE target, 18 bp]",activity (% average increase in CpG methylation),[2],10
"Nc1ncnc2c1ncn2C(C=O)OC(C=O)CO (stereo not shown) [Adox, adenosine dialdehyde]",co-localization of glucagon and insulin granules within the same islet cell,"[3]; 50μM Adox 72 h, not seen in untreated islets",occasional co-occurrence of glucagon and insulin granules within the same islet cell; also recorded: co-localization of glucagon and insulin granules within the same cell; also recorded: co-localization of glucagon and insulin granules in pancreatic cells
same,PDX1 expression in glucagon-positive cells (PDX1+/GCG+ double-positive cells),[3]; 50μM Adox 72 h vs untreated,nuclear PDX1-expression in many glucagon-positive cells; also recorded: many double-positive cells
same,ARX expression level,[4],increase
same,MAFA expression level,[4],slight decrease
same,NKX6-1 expression level,[4],slight decrease
same,PDX1 expression level,[4],increase
same,glucagon (GCG) expression level,[4],no change
same,insulin (INS) expression level,[4],no change
same,insulin granules in YFP+ (lineage-labeled α) cells,[5],occurrence of insulin granules in YFP+ cells
same,ARX expression level,[6],no change
same,MAFA expression level,[6],decrease
same,NKX6-1 expression level,[6],decrease
same,glucagon (GCG) expression level,[6],no change
same,insulin (INS) expression level,[6],no change
same,H3K4me3-enrichment (FIG. 9A legend),[7]; human islets treated with Adox,decrease
same,H3K27me3 enrichment at genes carrying a bivalent or monovalent H3K27me3 mark in all pancreatic cell populations,[7]; [8],strong decrease
same,"H3K27me3 enrichment at the ARX, MAFA and PDX1 loci",[7]; [8],decrease; also recorded: decreased H3K27me3 levels
